From patent US20030139374A1 (University of Texas, published 2003)

Tests used:
[1] = system: L540rec human Hodgkin's lymphoma tumors; experiment: Tumor tissue necrosis in L540rec tumor-bearing SCID mice treated with tTF and/or endotoxin; format: in vivo
Protocol: For in vivo studies, a metastasizing mouse model for human Hodgkin's lymphoma was used. 1×10^7 L540rec cells were injected subcutaneously into the right flank of SCID mice resulting in a subcutaneous tumor with lymph node metastases in the regional lymph node stations. Subcutanous tumors were measured with a caliper in three perpendicular directions a, b, and c, and volumes calculated according to the formula V=π/6×a×b×c.
(§1) Treatment was initiated when subcutaneous tumors reached a size of 150 to 300 μl. Reagents were administered into the lateral tail vein.
(§2) Mice were closely observed after treatment for clinical signs of toxicity and clinical status was documented at defined time points (5 minutes. 10 minutes, 15 minutes, 30 minutes. 1 hour, 2 hours, 24 hours, 48 hours, 72 hours). Blood samples were taken from the tail vein at 1 hour, 2 hours and 24 hours to measure TNFα blood levels. Three days after treatment, the mice were anesthetized, blood samples were taken from the vena cava for coagulation tests, and an autopsy was performed to document any changes in gross pathology. Tumors, lymph node metastases and the major normal organs (heart, lung, brain, liver, kidney, colon, spleen, pancreas) were harvested and prepared for histological analysis.
(§3) Tissue samples harvested at the time of autopsy were fixed in 3% NBF (normal buffered formalin) and embedded in paraffin wax. Tissue blocs were cut, dewaxed and stained with hematoxilin and eosin (H&E). Tissue sections were analyzed on a light microscope by two independent investigators and histological findings were documented. Tumor sections with necrotic areas were scanned with a GS-700 imaging densitometer (Biorad, Hercules, Calif.) and areas of necrosis were calculated as % of total section area. Statistical Analysis was performed using SPSS software (SPSS Science Software, Erkrath, Germany) applying the Mann-Whitney-U-test for ungrouped data.

[2] = Clinical signs of toxicity and histology of normal organs after tTF and/or endotoxin; format: in vivo, SCID mice; conditions: for Symptoms: no endotoxin, tTF i.v.
Protocol: as §1, §2, §3

[3] = Plasma coagulation parameters (TAT, ATIII) three days after treatment; format: in vivo, SCID mice; conditions: tTF alone, no endotoxin, three days after i.v. treatment
bEnd 3 cells = experiment: Cell bound coagulation assay on stimulated bEnd 3 endothelial cells (factor Xa generation); format: cell-based, murine; conditions: for Factor Xa generation due to Factor VIIa production: factor VII-only values subtracted
[4] = target: T1, Factor Xa generation (Factor VIIa, Factor X) (Homo sapiens, UniProt P08709); experiment: Cell free two-stage coagulation assay; format: biochemical; conditions: FIG. 2
T1 construct: purchased Sigma
T1 sequence (P08709 61-212 limits assumed): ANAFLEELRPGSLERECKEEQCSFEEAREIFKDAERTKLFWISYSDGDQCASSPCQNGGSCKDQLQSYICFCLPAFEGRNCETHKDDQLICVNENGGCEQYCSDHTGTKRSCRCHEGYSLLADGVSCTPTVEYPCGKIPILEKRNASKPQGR
T1 sequence (P08709 213-466 limits assumed): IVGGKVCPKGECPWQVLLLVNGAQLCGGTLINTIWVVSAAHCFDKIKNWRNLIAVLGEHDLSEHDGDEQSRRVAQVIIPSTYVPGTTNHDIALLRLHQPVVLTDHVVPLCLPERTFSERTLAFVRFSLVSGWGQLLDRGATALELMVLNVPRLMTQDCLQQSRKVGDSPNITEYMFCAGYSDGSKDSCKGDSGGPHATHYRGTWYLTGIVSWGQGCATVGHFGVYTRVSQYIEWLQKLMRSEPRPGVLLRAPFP
T1 sequence (P13726 33-251 partner limits assumed): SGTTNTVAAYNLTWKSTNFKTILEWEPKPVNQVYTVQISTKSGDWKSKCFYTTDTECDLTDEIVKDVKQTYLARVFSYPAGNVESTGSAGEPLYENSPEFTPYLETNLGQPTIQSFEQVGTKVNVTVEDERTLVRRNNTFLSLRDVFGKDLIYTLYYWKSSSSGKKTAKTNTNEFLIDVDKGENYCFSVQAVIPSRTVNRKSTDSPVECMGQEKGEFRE
Protocol: In vitro coagulation activity was tested in a cell free two-stage coagulation assay. Negatively charged phospholipids at a final concentration of 50 μM (phosphatidylserine and phosphatidylcholine from Sigma, Taufkirchen, Germany) in calcium buffer (50 mM Tris pH=8.1, 150 mM NaCl, 2 mg/ml BSA, 5 mM Ca^++) were mixed with Factor VIIa (Sigma, Taufkirchen, Germany) at 10 nM and with samples or controls and incubated for five min at 37° C. Factor X was added to a final concentration of 30 nM and samples were incubated for 5 min at room temperature. Finally, the chromogenic substrate S2765 (Haemochrom, Essen, Germany) was added in a 100 mM EDTA solution. Factor Xa generation as a measure of Tissue Factor activity was determined by the increase in the absorption at 405 nm.
Negatively charged phospholipids at a final concentration of 50 μM (phosphatidylserine and phosphatidylcholine from Sigma, St. Louis, Mo.) in calcium buffer (50 mM Tris pH=8.1, 150 mM NaCl, 2 mg/ml BSA, 5 mM Ca^++) were mixed with Factor VIIa (Sigma, St. Louis, Mo.) at 10 nM and with samples or controls and incubated for five minutes at 37° C. Factor X (Sigma, St. Louis, Mo.) was added to a final concentration of 30 nM and samples were incubated for 5 minutes at room temperature. […] Factor Xa generation as a measure of tissue factor activity was determined by the increase in the absorption at 405 nm.

immobilized tTF = target: T2, immobilized tTF (Homo sapiens, UniProt P13726); experiment: Real time binding of tTF to immobilized tTF (surface plasmon resonance); conditions: tTF 30 μg/ml alone or preincubated with endotoxin or factor VIIa
T2 construct: Recombinant soluble Tissue Factor protein (amino acids 1-219) was extracted from the periplasmic space of transformed E. coli; His tag (only implied by the Ni-NTA purification); made in house; host or cells: E. coli (periplasmic secretion, vector pswc7)
T2 sequence (P13726 33-251): as the sequence (P13726 33-251 partner limits assumed) above

F9 sarcoma tumors = experiment: F9 sarcoma mouse model, tumor tissue necrosis; format: in vivo, balb/c nude mice; conditions: endotoxin-free tTF 4 μg; three days after treatment
Protocol: 1×10^7 F9 sarcoma cells were injected subcutaneously into the right flank of balb/c nude mice. Subcutanous tumors were measured with a caliper in three perpendicular directions a, b, and c, and volumes calculated according to the formula V=π/6×a×b×c. Treatment was initiated when subcutaneous tumors reached a size of 150 to 300 μl.
Reagents were administered into the lateral tail vein.
Mice were closely observed after treatment for clinical signs of toxicity and clinical status was documented at defined time points. Three days after treatment, mice were sacrificed and tumors were harvested. Paraffin embedded tissues were stained with hematoxilin and eosin (H&E). Tissue sections were analyzed on a light microscope by two independent investigators and histological findings were documented. Tumor sections with necrotic areas were scanned with a GS-700 imaging densitometer (Biorad. Hercules, Calif.) and areas of necrosis were calculated as % of total section area.

A20 lymphoma cells = experiment: In vitro coagulation assay on A20 cells with B21-2/10H10 capture antibody; format: cell-based, mouse; conditions: for coagulation time: cells alone 190 seconds

tTF: truncated (soluble) human Tissue Factor, extracellular domain, amino acid 1-219 of the mature protein
% tumor necrosis ([1]; Table 2, tTF alone, no endotoxin, three days after i.v. treatment): 4%
Percentage of tumor tissue necrosis ([1]; tTF alone (4 μg or 16 μg endotoxin-free tTF), no endotoxin): 0%
anti-tumor effect ([1]; tTF alone at 100 μg): anti-tumor effects begin to appear
anti-tumor effect ([1]; tTF alone at doses of from 4 μg to 16 μg): no anti-tumor effect
histology of normal organs ([2]; light microscopy, three days after treatment): No histological abnormalities
Symptoms ([2]; listed as TTF): None
Symptoms ([2]; listed as endotoxin-free tTF): no clinical signs of toxicity
TAT [3]: 25.4 ng/mL
Factor Xa generation due to Factor VIIa production (bEnd 3 cells; stimulation with 0.5 μg/ml LPS (label LPS = medium only), 2 μg/ml factor VII and 0.01 μg/ml factor VIIa): 3.00 nkatS2222
Factor Xa generation (bEnd 3 cells; stimulation with 0.5 μg/ml LPS, then incubation with labelled agent (label LPS = medium only), 0.5 μg/ml factor VIIa): 2.00 nkatS2222
Factor Xa generation (bEnd 3 cells; stimulation with 10 μg/ml LPS, then incubation with labelled agent (label LPS = medium only), 0.5 μg/ml factor VIIa): 2.91 nkatS2222
Factor Xa generation due to Factor VIIa production (bEnd 3 cells; stimulation with Medium, mix with 2 μg/ml factor VII and 0.01 μg/ml factor VIIa): 0.70 nkatS2222
Factor Xa generation (bEnd 3 cells; stimulation with Medium, then incubation with the labelled agent (100 nM), mix with 0.5 μg/ml factor VIIa (VIIa not limiting)): 0.40 nkatS2222
Factor Xa generation (bEnd 3 cells; stimulation with TNFα (500 U/ml), then incubation with labelled agent (label TNFα = medium only), 0.5 μg/ml factor VIIa): 0.67 nkatS2222
Factor Xa generation due to Factor VIIa production (bEnd 3 cells; stimulation with TNFα (label TNFα = medium only), 2 μg/ml factor VII and 0.01 μg/ml factor VIIa): 1.91 nkatS2222
coagulation activities before and after endotoxin removal (depyrogenation) [4]: the same
binding to immobilized tTF (immobilized tTF): did not bind
average tumor tissue necrosis (F9 sarcoma tumors): 45%
coagulation time (A20 lymphoma cells; 20,000 molecules per cell): 140 s
coagulation time (A20 lymphoma cells; 300,000 molecules of tTF per cell): 40 s
concentration at which plasma coagulated in 50 seconds (A20 lymphoma cells; bound via B21-2/10H10 to A20 cells): 3 nM
time until fibrin strands were visible (A20 lymphoma cells; mouse plasma, tTF bound by B21-2/10H10, untreated cells 164 seconds): 36 s
increase in coagulation-inducing potency (A20 lymphoma cells; presence of 0.1 nM Factor VIIa): 2-5 fold
